Our source for the IC50 values is ChEMBL document CHEMBL5385921, “Kagimminols A and B, Cembrene-Type Diterpenes from an Okeania sp. Marine Cyanobacterium” (J Nat Prod, 2024).

Structures are written as SMILES. Counter-ions that a name gives are not always drawn.

The test system of experiment [1] is Trypanosoma brucei rhodesiense. The experiment in a line: Antitrypanosomal activity against blood stream form of Trypanosoma brucei rhodesiense IL-1501 assessed as growth inhibition incubated for 69 hrs by alamar blue staining based microplate fluorescence scanner analysis. The experiment is classed as functional, organism-based. As to conditions: IL-1501, 69 h.

In experiment [2] the test system is HeLa. The experiment in a line: Antiproliferative activity against human HeLa cells assessed as inhibition of cell growth incubated for 72 hrs by MTT assay. The experiment is classed as functional, cell-based. Background: Formazan colour is commonly taken as a measure of viable cells.

For `C/C1=C\C=C(\C(C)C)[C@@H](O)C[C@](C)(O)C(=O)CC/C(C)=C/CC1`, the IC50 in experiment [1] was 10 µM; in experiment [2] it was greater than 30 µM.

On to `CC(=O)O[C@H]1C[C@](C)(O)C(=O)/C=C(\O)[C@](C)(O)CCC/C(C)=C/C=C\1C(C)C`, for which the values for the IC50 in experiment [1] and in experiment [2] were 3.4 µM and greater than 30 µM, respectively.

Take `COc1cccc2c1C(=O)c1c(O)c3c(c(O)c1C2=O)C[C@@](O)(C(=O)CO)C[C@@H]3O[C@H]1C[C@H](N)[C@H](O)[C@H](C)O1` [DOXORUBICIN HYDROCHLORIDE]: in experiment [2], the IC50 was determined as 0.5 µM.

One may read the IC50 as the concentration at which inhibition is half-maximal.
